Measured values as given in BigSolDB 2.1.

Compound: O=C(N[C@H](Cc1ccccc1)C(=O)O)OCC1c2ccccc2-c2ccccc21
- solubility (mole fraction) (in methanol, 283.15 K): 0.00189
- solubility (mole fraction) (in methanol, 288.15 K): 0.00192
- solubility (mole fraction) (in methanol, 293.15 K): 0.00199
- solubility (mole fraction) (in methanol, 298.15 K): 0.00212
- solubility (mole fraction) (in methanol, 303.15 K): 0.00243
- solubility (mole fraction) (in methanol, 308.15 K): 0.00285
- solubility (mole fraction) (in methanol, 313.15 K): 0.00331
- solubility (mole fraction) (in methanol, 318.15 K): 0.0039
- solubility (mole fraction) (in methanol, 323.15 K): 0.00513
- solubility (mole fraction) (in methyl acetate, 283.15 K): 0.00327
- solubility (mole fraction) (in methyl acetate, 288.15 K): 0.00358
- solubility (mole fraction) (in methyl acetate, 293.15 K): 0.00408
- solubility (mole fraction) (in methyl acetate, 298.15 K): 0.00458
- solubility (mole fraction) (in methyl acetate, 303.15 K): 0.00537
- solubility (mole fraction) (in methyl acetate, 308.15 K): 0.00623
- solubility (mole fraction) (in methyl acetate, 313.15 K): 0.0072
- solubility (mole fraction) (in methyl acetate, 318.15 K): 0.00884
- solubility (mole fraction) (in methyl acetate, 323.15 K): 0.0105
- solubility (mole fraction) (in n-butanol, 283.15 K): 0.00121
- solubility (mole fraction) (in n-butanol, 288.15 K): 0.00136
- solubility (mole fraction) (in n-butanol, 293.15 K): 0.00156
- solubility (mole fraction) (in n-butanol, 298.15 K): 0.00181
- solubility (mole fraction) (in n-butanol, 303.15 K): 0.0022
- solubility (mole fraction) (in n-butanol, 308.15 K): 0.00261
- solubility (mole fraction) (in n-butanol, 313.15 K): 0.00322
- solubility (mole fraction) (in n-butanol, 318.15 K): 0.00389
- solubility (mole fraction) (in n-butanol, 323.15 K): 0.00511
- solubility (mole fraction) (in n-butyl acetate, 283.15 K): 0.00209
- solubility (mole fraction) (in n-butyl acetate, 288.15 K): 0.00227
- solubility (mole fraction) (in n-butyl acetate, 293.15 K): 0.00243
- solubility (mole fraction) (in n-butyl acetate, 298.15 K): 0.00278
- solubility (mole fraction) (in n-butyl acetate, 303.15 K): 0.00305
- solubility (mole fraction) (in n-butyl acetate, 308.15 K): 0.00352
- solubility (mole fraction) (in n-butyl acetate, 313.15 K): 0.00409
- solubility (mole fraction) (in n-butyl acetate, 318.15 K): 0.0046
- solubility (mole fraction) (in n-butyl acetate, 323.15 K): 0.00536
- solubility (mole fraction) (in n-propanol, 283.15 K): 0.00161
- solubility (mole fraction) (in n-propanol, 288.15 K): 0.00168
- solubility (mole fraction) (in n-propanol, 293.15 K): 0.00178
- solubility (mole fraction) (in n-propanol, 298.15 K): 0.0019
- solubility (mole fraction) (in n-propanol, 303.15 K): 0.00217
- solubility (mole fraction) (in n-propanol, 308.15 K): 0.00252
- solubility (mole fraction) (in n-propanol, 313.15 K): 0.00316
- solubility (mole fraction) (in n-propanol, 318.15 K): 0.00365
- solubility (mole fraction) (in n-propanol, 323.15 K): 0.00456
- solubility (mole fraction) (in n-propyl acetate, 283.15 K): 0.0023
- solubility (mole fraction) (in n-propyl acetate, 288.15 K): 0.00244
- solubility (mole fraction) (in n-propyl acetate, 293.15 K): 0.00275
- solubility (mole fraction) (in n-propyl acetate, 298.15 K): 0.00318
- solubility (mole fraction) (in n-propyl acetate, 303.15 K): 0.00354
- solubility (mole fraction) (in n-propyl acetate, 308.15 K): 0.00405
- solubility (mole fraction) (in n-propyl acetate, 313.15 K): 0.00467
- solubility (mole fraction) (in n-propyl acetate, 318.15 K): 0.00534
- solubility (mole fraction) (in n-propyl acetate, 323.15 K): 0.00613
